Results as given in paper PMC6982022 (International Journal of Molecular Sciences, 2019).
Where two headings read alike, the source gives them in different places.

Legend:
[1] = system: GBA2; settings: ref 15; cited from earlier work
[2] = system: rodent model of diabetes; set-up: method as in PMID 20000679; settings: ref 36; cited from earlier work
[3] = system: C57BL6J mice; test: Epididymal sperm acrosome morphology (FITC-PSA staining) after 35 days oral dosing; assay type: in vivo, mouse; settings: 15, 25 and 50 mg/kg oral daily
Description: (§1) Groups of six mice, each, were used for three different doses of NB-DNJ or NB-DGJ formulated in milliQ water at 50 mg/kg, 25 mg/kg and 15 mg/kg, respectively. Control groups were given an equivalent volume of water. Animals were given compound or control once daily for 35 consecutive days via oral gavage using animal feeding needles (Biomedical Needles, Popper, NY, USA). Body weight was noted every week for all treatment groups. Mice were euthanized at the end of a 35 days dosing regimen using CO2 asphyxia followed by cervical dislocation. Testes were harvested, weighed and stored in Bouin’s fixative for 48 h, then sliced into two halves, and stored in fresh Bouin’s for another 24 h. The tissue slices were then rinsed in 70% ethanol and processed and stained for histology using a standard protocol for Hematoxylin and eosin staining. Spermatids with elongated and abnormally shaped heads were counted per 20 fields and average number calculated for 6 mice/group.
For sperm retrieval, epididymis was removed from the animal and placed in Petri dish. One mL of capacitation buffer (Capacitation buffer consisted of 110 mM NaCl, 2.68 mM KCl, 0.36 mM NaH2PO4, 25 mM NaHCO3, 0.49 mM MgCl2, 2.40 mM CaCl2, 25 mM HEPES, 5.50 mM Glucose, 1 mM Pyruvic acid, pH 7.4; Tash and Bracho, 1998) at room temperature was added to the dish. Using forceps, the caput of the epididymis was held in place and the cauda sliced repeatedly with a razor blade. The spermatozoa were allowed to disperse for 15 min with gentle swirling intermittently. A 100 µL aliquot of the sperm suspension was dropped onto a standard glass microscope slide (Fisherbrand superfrost microscope slides 25 × 75 × 1.0 mm)) and smeared with side of pipette tip. The slides were air dried flat for 1 h at room temperature. The sperm smear was fixed in methanol for 2 min. The sperm smear was than stained using FITC-PSA (Fluorescein isothiocyanate Pisum Sativum Agglutinin; Vector Laboratories, Burlingame, CA) was diluted 1:7000 in PBS containing 1:10,000 DAPI dihydrochloride, FluoroPure™ grade, Invitrogen) (≥98% pure) to make the stock solution. To each slide, 100 µL of FITC-PSA was added and spread out with edge of pipette tip to cover the dried sperm smear. The slides were incubated at 37 °C for 10 min, and then washed with 5 changes of PBS for 5 min each. The slides were air-dried and mounted with 20 µL Vectashield mounting medium for fluorescence (Vector Laboratories, Burlingame, CA, USA) and observed. Slides were viewed on a Nikon IX-81 microscope under a 40× objective using FITC and DAPI filter to visualize acrosome morphology. The phase contrast images were also collected at the same magnification to compare morphological details.

[4] = system: human subjects; set-up: method as in PMID 17067996, PMID 10801168, PMID 7905523; settings: ref 25, 26, 27; cited from earlier work
[5] = system: C57BL/6 mice; settings: cited from earlier work
[6] = set-up: method as in PMID 17624027; settings: male and female CD rats, oral [3H]-NB-DNJ 160 mg/kg, cited from earlier work
[7] = system: male CD rats; test: Rat mating trial (fertility); assay type: in vivo; settings: 15 mg/kg/day oral, 35 days; data not presented
Description: Eighteen adult male CD rats were divided into three groups of six rats each. One group of six CD rats was treated with vehicle (distilled water containing 0.9% benzyl alcohol) via oral gavage (5 mL/kg/day), and the second group (6 rats) was treated with NB-DGJ (in distilled water containing 0.9% benzyl alcohol) via oral gavage at 150 mg/kg/day (in approximately 5 mL/kg of water) daily for 35 consecutive days. The third group (6 rats) was treated with 15 mg/kg NB-DNJ in distilled water containing 0.9% benzyl alcohol) via oral gavage (in approximately 5 mL/kg of water) daily for 35 consecutive days (Figure S5).
Rats were weighed on day 0 (first day of dosing) and weekly thereafter. Dosages were adjusted based on the most recent body weight. Males were cohabited with untreated females (one male per two females) weekly at weeks 1 through 9 [38, 39]. Females were necropsied seven days after separation from males to determine the numbers of implantation sites. Individual male rats were bled from the tail vein at weeks 0, 1, 4, and 7 and serum was harvested by centrifugation. At week 11, the male rats were weighed, anesthetized, and exsanguinated. Sera were analyzed for inhibin B by ELISA (enzyme-linked immunosorbent assay), and rat follicle stimulating hormone (rFSH) and testosterone by radioimmunoassay. Testes, epididymides, ventral prostates, and seminal vesicles were excised and weighed. The left testis was homogenized, and spermatid head counts obtained.
Statistical analysis using the Student’s t-test was performed on body weights, paired testes weights, ventral prostrate weights, seminal vesicle weights, paired epididymal weights, spermatid head counts, percent motile and normal epididymal sperm. We used analysis of variance (ANOVA) for serum inhibin B, rFSH, and testosterone, since these measurements were repeated throughout the study period. The effect of NB-DNJ at 15 mg/kg/day dose in the rat model was studied following the same protocol as that for NB-DGJ.

[8] = system: C57BL6J mice; test: Testis histology (H&E) after 35 days oral dosing; assay type: in vivo, mouse; settings: 15, 25 or 50 mg/kg, oral daily
Description: as §1

[9] = C57BL/6 mice, daily oral 15 mg/kg

## OC[C@@H]1[C@@H](O)[C@H](O)[C@@H](O)CN1CCCCCOCC12CC3CC(CC(C3)C1)C2
[2]
  Control of hyperglycemia (in words): potently control hyperglycemia

## CCCCN1C[C@H](O)[C@@H](O)[C@H](O)[C@H]1CO [NB-DNJ, N-butyldeoxynojirimycin]
[3]
  Sperm acrosome morphology (in words): abnormal acrosome in all spermatozoa
[4]
  Effect in human subjects (sperm counts, semen parameters): no effect
[5]; C57BL/6 mice, 15 mg/kg
  Time to return of fertility after cessation: three weeks
[5]; [9]
  Effect on fertility (in words): Reversible inhibition of fertility
  Time of daily dosing until inhibition of fertility was observed: three weeks
[5]; ref 24
  Strain/species specificity of male contraceptive activity (in words): only effective as a male contraceptive in C57BL/6 and C57BL/6-related mice
[6]
  Cmax: 13,800 ng/mL
  tmax: 0.5 h
  t½: 4.5 h
[6]; read-out: Cmax in molar units
  Cmax: ~63 µM
[7]
  Effect on fertility in mating trial (in words): did not show effect on fertility by week 6
[8]
  Testis histology, spermatid heads (in words): rounded, abnormally shaped spermatid heads
